Assay results published in patent US20090163453A1, “Prevention and Treatment of Gastrointestinal and Bladder Disorders Associated with Chemotherapy or Radiation Therapy Using Active Vitamin D Compounds” (Novacea Inc., priority 2005, published 2009).

Legend:
patients = conditions: administered doses with cisplatin infusions; cited from earlier work
[1] = system: patients with androgen independent prostate cancer; conditions: human, in vivo
Experimental: Two hundred fifty patients with androgen independent prostate cancer were enrolled in a randomized placebo controlled trial at 48 centers in the United States and Canada.
The same Taxotere® dose of 36 mg/m^2 body surface area was administered to the patients receiving Taxotere® and placebo or Taxotere® in combination with calcitriol.
Hospitalization for dehydration was more common in those patients receiving Taxotere® and placebo.

[2] = Solubility study of calcitriol in each formulation (light microscope); format: physicochemical; conditions: each formulation of Table 3; heated to 50° C., cooled to room temperature; highest concentration tested
Experimental: To further assess the formulations of calcitriol, a solubility study was conducted to evaluate the amount of calcitriol soluble in each formulation. Calcitriol concentrations from 0.1 to 0.6 μg calcitriol/mg formulation were prepared by heating the formulations to 50° C. followed by addition of the appropriate mass of calcitriol. The formulations were then allowed to cool to room temperature and the presence of undissolved calcitriol was determined by a light microscope with and without polarizing light. For each formulation, calcitriol was soluble at the highest concentration tested, 0.6 μg calcitriol/mg formulation.

SMILES | Emesis, percent of patients (patients) | Hypotension, percent of patients (patients) | GI disorders versus Taxotere and placebo [1] | Calcitriol soluble in formulation [2]
NCCCNCCSP(=O)(O)O [WR 2721, S-2-(3-aminopropylamino)ethylphosphorothioic acid] | 48 % of patients | 7 % of patients | – | –
C=C1/C(=C\C=C2/CCC[C@]3(C)[C@@H]([C@H](C)CCCC(C)(C)O)CC[C@@H]23)C[C@@H](O)C[C@@H]1O [Calcitriol, 1α,25-hydroxyvitamin D3] | – | – | fewer GI disorders | ≥ 0.6 μg calcitriol/mg formulation
